What all share (experiment): inhibition of tumour cell growth, NCI panel, 48 h
Experiment [1] relates to MOLT-4 leukemia.
In experiment [2] the test system is UACC-62 melanoma.
For experiment [3], the system named is IGROV1 ovarian.
Experiment [4] relates to MDA-MB-435.
The test system of experiment [5] is SNB-75 CNS.
The test system of experiment [6] is SW-620 colon.
The test system of experiment [7] is EKVX NSCLC.
Experiment [8] relates to ACHN renal.
In experiment [9] the test system is RPMI-8226 leukemia.
Experiment [10] deals with MALME-3M melanoma.
The subject of experiment [11] is MDA-N.
For experiment [12], the system named is NCI-H522 lung.
For experiment [13], the system named is A549 NSCLC.
Experiment [14] deals with OVCAR-5 ovarian.

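Tested at 5 concentrations; 48 h exposure; 96-well plates; endpoints linearly interpolated, else capped at highest concentration. TGI: total growth inhibition.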

Turning to `CCCNC(=O)N(C)C(=O)N1N=C(c2ccccc2)C1c1ccccc1` (centres undefined), the TGI in experiment [1], in experiment [2], in experiment [3], in [4], in experiment [5] and in experiment [6] was > 100 µM in each case. For the same compound, the TGI in experiment [7], in experiment [8], in [9], in experiment [10], in experiment [11] and in [12] was > 100 µM each time. In addition, the TGI in experiment [13] is > 100 µM.
For `CC(C)[C@@H](C)[C@@]1(C)C[C@@H]1[C@@H](C)[C@H]1CC[C@@H]([C@@H]2CC=C3C[C@@H](O)CC[C@]3(C)C2=O)[C@]1(C)CCO`, the TGI in [1] worked out at 19.3 µM; in [2], 27.7 µM; in experiment [3] it was 29.8 µM; in experiment [14], 23.8 µM; in experiment [4] it was 24.3 µM; in [5], 17.9 µM. Moreover, the TGI in experiment [6] is 20.1 µM; in [7], 26 µM; in experiment [8], 25 µM; in [9], 52 µM; in experiment [10], 27.4 µM; in experiment [11], 26.1 µM. The compound further returned a TGI in experiment [12] of 19.8 µM.
Take `COC(=O)C1=NN2c3ccccc3CN([C@@H](C)c3ccccc3)C(=O)[C@@H]2[C@H]1c1ccccc1`: the TGI in experiment [1], in experiment [2], in experiment [14], in experiment [4], in [5] and in experiment [6] was > 100 µM throughout. Moreover, the TGI in [7], in experiment [8], in [10], in [11], in experiment [12] and in [13] was > 100 µM each time.
In the case of `COC1CC(O[C@H]2CC[C@@]3(C)[C@@H](CC[C@]4(O)[C@@H]3CC[C@]3(C)[C@@H](C(C)=O)[C@H](OC(=O)CC(C)C)[C@@H](OC(=O)c5ccccc5)[C@@]34O)C2)OC(C)C1OC1CC(OC)C(OC2OC(C)C(O)C(OC)C2O)C(C)O1` (some centres undefined), the TGI was 22.4 µM in [1]; > 25 µM in experiment [3]; > 25 µM in experiment [14]; > 25 µM in [4]; > 25 µM in [5]; > 25 µM in experiment [6]. Further, the TGI in [7] was > 25 µM; in experiment [8] it was > 25 µM; in [9] it was 14.5 µM; in experiment [10], > 25 µM; in experiment [11], > 25 µM; in [12], > 25 µM. For the same compound, the TGI in [13] is > 25 µM.
As to `c1ccc([P+](CCCCCC[P+](c2ccccc2)(c2ccccc2)c2ccccc2)(c2ccccc2)c2ccccc2)cc1`, the TGI was > 100 µM in [1]; > 100 µM in experiment [2]; 30.8 µM in experiment [3]; > 100 µM in experiment [14]; 72.9 µM in experiment [4]; > 100 µM in [5]. Moreover, the TGI in [6] was > 100 µM; in experiment [7], > 100 µM; in [8] it was > 100 µM; in experiment [10] it was > 100 µM; in [11] it was 54.9 µM; in experiment [12] it was > 100 µM. The TGI in experiment [13] was > 100 µM.
For `Nc1nc(=S)n(-c2ccc(Cl)cc2)c2nc3ccccc3cc12`, the TGI in [2] is > 100 µM; in experiment [3] it was > 100 µM; in [14] it was > 100 µM; in [4] it was > 100 µM; in experiment [5], 97 µM; in experiment [6], > 100 µM. For the same compound, the TGI in [7], in [8], in experiment [9], in [10], in experiment [11] and in experiment [12] was > 100 µM in each case. The TGI in experiment [13] was > 100 µM.
In the case of `CC1(C)C2CCC(O)(C2)C1N` (centres undefined), the TGI in experiment [1], in [2], in experiment [3], in experiment [14], in [4] and in [5] was > 100 µM throughout. The TGI in experiment [6], in experiment [7], in [8], in experiment [9], in experiment [10] and in experiment [11] was > 100 µM throughout. Further, the TGI in experiment [13] is > 100 µM.
On to `Cc1csc(NNC(=O)Nc2ccccc2)n1`, for which the TGI in [2], in [3], in [14], in experiment [4], in [5] and in experiment [6] was > 100 µM throughout. Further, the TGI in experiment [7], in [8], in [9], in experiment [10], in [11] and in experiment [12] was > 100 µM throughout. The TGI in experiment [13] was > 100 µM.
As for `O=C1NC(=S)NC(=O)C1=C/C=C/c1ccc([N+](=O)[O-])cc1`, the TGI was 16.6 µM in experiment [1]; 28.7 µM in experiment [2]; 28.2 µM in [3]; 40.2 µM in experiment [14]; 28.3 µM in experiment [4]; 35.2 µM in experiment [5]. The TGI was 18.9 µM in [6]; 36.7 µM in experiment [7]; 39 µM in experiment [8]; > 100 µM in experiment [9]; 80.8 µM in experiment [10]; 27.7 µM in experiment [11]. In addition, the TGI in experiment [13] was 50.4 µM.
Turning to `COc1cc2c[n+](C)c3c(c2cc1OC)Cc1cc2c(cc1-3)OCO2`, the TGI in [1], in experiment [2], in [3], in experiment [14], in [4] and in [5] was > 100 µM in each case. The TGI in experiment [6], in [7], in experiment [9], in [10], in [11] and in [12] was > 100 µM each time. Also, the TGI in experiment [13] is > 100 µM.

Values taken from PubChem BioAssay (NCI).
